Molecules are shown by their SMILES.

The data set has as its system heart (myocardial damage) of Crl:CD-1 (ICR) BR female mice. Description: cardiotoxicity in the Bertazzoli mouse model. In kind it is in vivo. The following applies: intravenous, expected.

Procedure: Animals/group: 15 Crl:CD-1 (ICR) BR female mice, about 4 weeks old at the start of treatment, will be used.
Test and control articles and formulations: Epi and rmuAb will be dissolved in normal saline (saline) and distilled water for injection (water), respectively, at the requested concentrations; dex will be dissolved in M/6 sodium lactate at the requested concentration; control animals will receive the above vehicles alone.
Dose levels and justification: The doses of 5 mg/kg/day for epi and 50 mg/kg/day for dex (epi/dex ratio: 1:10) are selected on the basis of the results of previous cardiotoxicity studies in mice. […] The two doses of rmuAb will be decided on the basis of the results of two preliminary studies performed to assess its toxicity and cardiotoxic potential in the above strain of mice.
Administration route: intravenous, via a tail vein, for epi, dex and rmuAb.
Study duration and treatment schedule: Twice a week at weeks 1, 2, 5, 6, and 7 for epi and dex; twice a week for 7 weeks for rmuAb. Dex will be given 30 minutes before epi. […]
Clinical observations and post-mortem examinations: Mortality, clinical signs and general condition will be recorded daily and body weight weekly. […] Cardiomyopathy will be evaluated by scoring the severity and extent of the myocardial lesions according to a qualitative/quantitative score. […]

With `COc1cccc2c1C(=O)c1c(O)c3c(c(O)c1C2=O)C[C@@](O)(C(=O)CO)C[C@@H]3O[C@H]1C[C@H](N)[C@@H](O)[C@H](C)O1` [epi, epirubicin], under “5 mg/kg/day epi”, the cardiotoxicity induced entry is “moderate/marked cardiotoxicity”.

`C[C@@H](CN1CC(=O)NC(=O)C1)N1CC(=O)NC(=O)C1` [dex, dexrazoxane]: where the note is “50 mg/kg/day dex, 30 minutes before epi”, the “effect on myocardial damage produced by epi” value is recorded as “significantly reduce the myocardial damage”.

The record behind these values is patent publication US20030096823A1, “Method for the treatment of cardiotoxicity induced by antitumor compounds” (priority 2001, published 2003).
